Assay results from US20120295915A1, “AZABENZIMIDAZOLES AS FATTY ACID SYNTHASE INHIBITORS” (priority 2009, published 2012).

Target: FAS (Homo sapiens, UniProt P49327)
Assay: FAS assay (Assay #1 residual NADPH detection or Assay #2 CoA detection with CPM dye)
Type: biochemical
Conditions: in at least one experimental run; tested generally according to the assays described (assay #1 or #2 not specified)
Protocol: FAS assay FAS activity was measured through one of the two following assays.
Inhibition of FAS activity can be measured based on the detection of residual NADPH substrate after the FAS assay is quenched. This assay is run as a 10 μL endpoint assay in 384-well format, where the reaction contains 20 μM malonyl-CoA, 2 μM acetyl-CoA, 30 μM NADPH and 40 nM FAS in 50 mM sodium phosphate, pH 7.0. The assay is run by sequentially dispensing 5 μl of a malonyl-CoA solution, then enzyme solution (containing the acetyl-CoA, and NADPH) into a black, low volume assay plate (Greiner 784076) pre-dispensed with […] compound solutions in DMSO. The reaction is incubated at ambient temperature for 60 minutes, then quenched with 5 μL of a developing solution composed of 90 μM resazurin, 0.3 IU/ml diaphorase in 50 mM sodium phosphate, pH 7.0. The developed reaction is read on a Molecular Devices Analyst or Acquest (or equivalent) plate reader using a 530 nm excitation wavelength filter, a 580 nm emission filter, and 561 nm dichroic filter. The test compounds are prepared in neat DMSO at a concentration of 10 mM. For inhibition curves, compounds are diluted using a three fold serial dilution and tested at 11 concentrations (e.g. 25 μM-0.42 nM). Curves are analysed using Activityl)ase and XLfit, and results are expressed as pIC50 values.
Inhibition of FAS can also be quantified based on the detection of the CoA products with a thio-reactive coumarin dye. This assay is run as a 10 μL endpoint assay in 384-well format, where the reaction contains 20 μM malonyl-CoA, 20 μM acetyl-CoA, 40 μM NADPH and 2 nM FAS in 50 mM sodium phosphate, pH 7.0, and 0.04% Tween-20. The assay is run by adding 5 μL enzyme solution to a black, low volume assay plate (Greiner 784076) pre-dispensed with 100 nl compound solutions in DMSO. After 30 minutes, 5 μL substrate is added, and the reaction incubated at ambient temperature for an additional 60 minutes. The reaction is then quenched with 10 μL of 6M guanidine-HCl containing 50 μM CPM (7-diethylamino-3-(4′-maleimidylphenyl)-4-methylcoumarin (CPM; thio-reactive dye), and incubated for 30 minutes. The plate is read on an Envision (PerkinElmer) or equivalent plate reader using a 380 nm excitation wavelength filter, and a 486 nm emission filter. Data fitting and compound preparations are done as described above.

Chain of FAS (P49327 whole entry): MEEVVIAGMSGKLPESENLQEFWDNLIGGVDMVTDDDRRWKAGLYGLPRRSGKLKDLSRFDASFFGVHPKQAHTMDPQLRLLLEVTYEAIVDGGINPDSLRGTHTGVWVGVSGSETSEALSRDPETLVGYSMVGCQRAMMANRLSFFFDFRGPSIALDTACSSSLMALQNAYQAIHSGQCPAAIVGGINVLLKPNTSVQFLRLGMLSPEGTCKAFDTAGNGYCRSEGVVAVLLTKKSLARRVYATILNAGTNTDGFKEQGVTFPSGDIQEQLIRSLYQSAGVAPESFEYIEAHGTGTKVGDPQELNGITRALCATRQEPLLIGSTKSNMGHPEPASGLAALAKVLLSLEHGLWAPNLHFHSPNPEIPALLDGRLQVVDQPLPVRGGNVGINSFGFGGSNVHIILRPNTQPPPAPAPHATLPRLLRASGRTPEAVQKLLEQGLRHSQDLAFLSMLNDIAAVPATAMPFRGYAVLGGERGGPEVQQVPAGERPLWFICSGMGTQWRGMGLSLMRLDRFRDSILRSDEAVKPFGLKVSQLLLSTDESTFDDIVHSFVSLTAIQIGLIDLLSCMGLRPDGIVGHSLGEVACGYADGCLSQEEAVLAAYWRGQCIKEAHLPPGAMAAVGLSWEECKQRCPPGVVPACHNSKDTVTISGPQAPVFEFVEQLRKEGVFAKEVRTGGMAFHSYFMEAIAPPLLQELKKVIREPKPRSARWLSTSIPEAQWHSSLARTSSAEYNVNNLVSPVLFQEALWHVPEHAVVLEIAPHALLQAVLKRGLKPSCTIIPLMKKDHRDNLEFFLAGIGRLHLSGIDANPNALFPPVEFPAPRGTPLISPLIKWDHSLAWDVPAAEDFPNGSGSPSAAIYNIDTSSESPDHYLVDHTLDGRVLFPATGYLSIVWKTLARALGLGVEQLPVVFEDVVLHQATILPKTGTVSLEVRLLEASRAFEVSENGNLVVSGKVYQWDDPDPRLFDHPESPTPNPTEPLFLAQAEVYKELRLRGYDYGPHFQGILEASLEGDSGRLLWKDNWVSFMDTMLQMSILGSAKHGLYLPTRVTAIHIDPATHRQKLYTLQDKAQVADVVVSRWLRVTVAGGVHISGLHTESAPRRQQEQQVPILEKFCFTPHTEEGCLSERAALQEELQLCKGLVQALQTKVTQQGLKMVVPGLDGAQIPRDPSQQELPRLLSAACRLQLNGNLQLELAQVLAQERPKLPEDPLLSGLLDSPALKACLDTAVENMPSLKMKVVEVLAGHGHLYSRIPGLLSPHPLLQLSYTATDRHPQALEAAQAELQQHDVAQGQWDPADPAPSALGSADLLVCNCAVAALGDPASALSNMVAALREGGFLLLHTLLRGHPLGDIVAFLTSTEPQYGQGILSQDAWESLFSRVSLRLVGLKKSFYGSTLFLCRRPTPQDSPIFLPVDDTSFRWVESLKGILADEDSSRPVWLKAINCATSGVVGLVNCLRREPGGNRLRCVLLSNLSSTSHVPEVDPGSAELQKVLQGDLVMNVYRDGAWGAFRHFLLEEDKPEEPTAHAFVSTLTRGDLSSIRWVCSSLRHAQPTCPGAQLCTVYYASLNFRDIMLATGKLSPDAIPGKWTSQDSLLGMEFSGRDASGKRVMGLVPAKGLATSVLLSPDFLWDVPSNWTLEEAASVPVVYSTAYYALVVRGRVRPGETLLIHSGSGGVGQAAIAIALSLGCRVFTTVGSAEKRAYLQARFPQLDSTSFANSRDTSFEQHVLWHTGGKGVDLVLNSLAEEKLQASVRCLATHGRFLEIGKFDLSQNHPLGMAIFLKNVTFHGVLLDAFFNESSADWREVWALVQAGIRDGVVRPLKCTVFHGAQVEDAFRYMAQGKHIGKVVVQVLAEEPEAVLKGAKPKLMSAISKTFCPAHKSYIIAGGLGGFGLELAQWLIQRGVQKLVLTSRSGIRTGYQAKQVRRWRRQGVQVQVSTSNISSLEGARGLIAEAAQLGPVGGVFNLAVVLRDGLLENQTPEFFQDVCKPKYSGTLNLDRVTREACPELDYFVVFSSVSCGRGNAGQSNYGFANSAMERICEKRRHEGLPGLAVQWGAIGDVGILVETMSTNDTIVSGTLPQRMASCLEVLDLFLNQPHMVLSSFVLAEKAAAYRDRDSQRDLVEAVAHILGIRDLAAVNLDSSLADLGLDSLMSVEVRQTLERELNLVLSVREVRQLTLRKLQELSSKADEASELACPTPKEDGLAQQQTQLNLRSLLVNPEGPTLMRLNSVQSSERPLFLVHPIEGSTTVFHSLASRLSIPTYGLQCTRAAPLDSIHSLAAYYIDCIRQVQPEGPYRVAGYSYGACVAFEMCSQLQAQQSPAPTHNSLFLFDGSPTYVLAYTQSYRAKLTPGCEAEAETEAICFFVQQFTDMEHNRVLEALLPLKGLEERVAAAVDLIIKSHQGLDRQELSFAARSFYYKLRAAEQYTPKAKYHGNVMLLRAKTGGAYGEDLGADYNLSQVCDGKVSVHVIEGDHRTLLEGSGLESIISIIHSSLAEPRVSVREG

IC50 [nM] | Compound
63 | Cc1cccc(-c2ccc(-c3nc4ncccc4n3C[C@@H]3CCN(C(=O)C4CC4)C3)cc2)c1 [Example 2, 1-{[(3S)-1-(cyclopropylcarbonyl)-3-pyrrolidinyl]methyl}-2-(3′-methyl-4-biphenylyl)-1H-imidazo[4,5-b]pyridine]
1060 | CN(C)C(=O)N1CC[C@@H](Cn2c(-c3ccc(-c4ccccc4)cc3)nc3cnccc32)C1 [Example 19, (3S)-3-{[2-(4-biphenylyl)-1H-imidazo[4,5-c]pyridin-1-yl]methyl}-N,N-dimethyl-1-pyrrolidinecarboxamide]
60 | O=C(C1CC1)N1CC[C@@H](Cn2c(-c3ccc(-c4ccc5occc5c4)cc3)nc3cnccc32)C1 [Example 22, 2-[4-(1-benzofuran-5-yl)phenyl]-1-{[(3S)-1-(cyclopropylcarbonyl)-3-pyrrolidinyl]methyl}-1H-imidazol[4,5-c]pyridine]
19 | O=C(C1CC1)N1CC[C@@H](Cn2c(-c3ccc(-c4ccc5[nH]ccc5c4)cc3)nc3cnccc32)C1 [Example 25, 1-{[(3S)-1-(cyclopropylcarbonyl)-3-pyrrolidinyl]methyl}-2-[4-(1H-indol-5-yl)phenyl]-1H-imidazo[4,5-c]pyridine]
45 | COc1ccc(-c2ccc(-c3nc4cccnc4n3C[C@@H]3CCN(C(=O)C4CC4)C3)cc2)cc1 [Example 27, 3-{[(3S)-1-(cyclopropylcarbonyl)-3-pyrrolidinyl]methyl}-2-[4′-(methyloxy)-4-biphenylyl]-3H-imidazo[4,5-b]pyridine]
9 | O=C(C1CC1)N1CC[C@@H](Cn2c(-c3ccc(-c4ccc5cc[nH]c5c4)cc3)nc3cccnc32)C1 [Example 35, 3-{[(3S)-1-(cyclopropylcarbonyl)-3-pyrrolidinyl]methyl}-2-[4-(1H-indol-6-yl)phenyl]-3H-imidazo[4,5-b]pyridine]
129 | O=C(C1CC1)N1CC[C@@H](Cn2c(-c3ccc(-c4ccccc4)cc3)nc3c(Cl)ncnc32)C1 [Example 46, 8-(4-biphenylyl)-6-chloro-9-{[(3S)-1-(cyclopropylcarbonyl)-3-pyrrolidinyl]methyl}-9H-purine]
142 | O=C(C1CC1)N1CC[C@@H](Cn2c(-c3ccc(-c4cnc5[nH]ccc5c4)cc3)nc3cnccc32)C1 [Example 54, 1-{[(3S)-1-(cyclopropylcarbonyl)-3-pyrrolidinyl]methyl}-2-[4-(1H-pyrrolo[2,3-b]pyridin-5-yl)phenyl]-1H-imidazo[4,5-c]pyridine]
13 | O=C(C1CC1)N1CC[C@@H](Cn2c(-c3ccc(-c4cccc5[nH]ccc45)cc3)nc3cnccc32)C1 [Example 55, 1-{[(3S)-1-(cyclopropylcarbonyl)-3-pyrrolidinyl]methyl}-2-[4-(1H-indol-4-yl)phenyl]-1H-imidazo[4,5-c]pyridine]
10 | O=C(C1CC1)N1CC[C@@H](Cn2c(-c3ccc(-c4ccc5scnc5c4)cc3)nc3cnccc32)C1 [Example 58, 2-[4-(1,3-benzothiazol-5-yl)phenyl]-1-{[(3S)-1-(cyclopropylcarbonyl)-3-pyrrolidinyl]methyl}-1H-imidazo[4,5-c]pyridine]
